Values of other authors as cited in patent US20020055536A1, “System and method for structure-based drug design that includes accurate prediction of binding free energy” (priority 1996, published 2002).

Legend:
[1] = molecular target: purine nucleoside phosphorylase; details: for IC50: 1 mM phosphate, Ki or IC50 not distinguished; for Phosphate sensitivity: change of binding constant upon increase of phosphate to 50 mM
[2] = molecular target: T1, HIV-1 protease (Human immunodeficiency virus type 1 group M subtype B, UniProt P04585)
T1 construct: The following HIV-1 protease ligands were tested by the method of the present invention

| Structure (SMILES) | IC50 [1] | Phosphate sensitivity [1] | Ki [2] |
| --- | --- | --- | --- |
| Nc1nc2c(ncn2COCCO)c(=O)[nH]1 [acyclovir] | 200 µM | low (those whose binding constant changes by a factor of 15 or less upon increase of the concentration of phosphate to 50 mM) | – |
| CC(=O)c1cnc(C(Cc2ccccc2)CC(O)C(Cc2ccccc2)NC(=O)OC(C)(C)C)[nH]1 (centres unmarked) [A Boc Me] | – | – | 0.37 µM |
| CC(C)C(NC(=O)C(Cc1ccccc1)CC(O)C(Cc1ccccc1)NC(=O)OC(C)(C)C)c1nnc[nH]1 (centres unmarked) [D N] | – | – | 0.0042 µM |
| Nc1nc(O)c2ncn(COCCOP(=O)(O)OP(=O)(O)O)c2n1 [acyclovirDP] | – | high (The highly sensitive molecules are affected in some instances by a factor of 140) | – |
| CCCC(=O)c1cnc(C(Cc2ccccc2)CC(O)C(Cc2ccccc2)NC(=O)OC(C)(C)C)[nH]1 (centres unmarked) [A Boc n-Pr] | – | – | 0.15 µM |
| CC(C)C(O)c1cnc(C(Cc2ccccc2)CC(O)C(Cc2ccccc2)NC(=O)OC(C)(C)C)[nH]1 [B Boc i-Pr(R)] | – | – | 2.7 µM |
| CC(C)(C)OC(=O)NC(Cc1ccccc1)C(O)CC(Cc1ccccc1)c1ncc(C=O)[nH]1 (centres unmarked) [A Boc H] | – | – | 3.5 µM |
| CC(C)C(=O)c1cnc(C(Cc2ccccc2)CC(O)C(Cc2ccccc2)NC(=O)OC(C)(C)C)[nH]1 (centres unmarked) [A Boc i-Pr] | – | – | 0.083 µM |
| CCC(=O)c1cnc(C(Cc2ccccc2)CC(O)C(Cc2ccccc2)NC(=O)OC(C)(C)C)[nH]1 (centres unmarked) [A Boc Et] | – | – | 0.092 µM |
| CC(C)C(O)c1cnc(C(Cc2ccccc2)CC(O)C(Cc2ccccc2)NC(=O)OC(C)(C)C)[nH]1 [B Boc iPr(S)] | – | – | 2.7 µM |
| Nc1nc2c(ncn2[C@H]2C[C@H](O)[C@@H](COP(=O)(O)OP(=O)(O)OP(=O)(O)O)O2)c(=O)[nH]1 [dGTP] | 32 µM | high (The highly sensitive molecules are affected in some instances by a factor of 140) | – |
| CC(O)c1cnc(C(Cc2ccccc2)CC(O)C(Cc2ccccc2)NC(=O)OC(C)(C)C)[nH]1 [B Boc Me(S)] | – | – | 13.3 µM |
| Nc1nc2c(ncn2[C@H]2C[C@H](O)[C@@H](COP(=O)(O)O)O2)c(=O)[nH]1 [dGMP] | 300 µM | low (those whose binding constant changes by a factor of 15 or less upon increase of the concentration of phosphate to 50 mM) | – |
| Nc1nc2c(ncn2COCCOP(=O)(O)OP(=O)(O)OP(=O)(O)O)c(=O)[nH]1 [acyclovirTP] | 0.31 µM | high (The highly sensitive molecules are affected in some instances by a factor of 140) | – |
| CC(O)c1cnc(C(Cc2ccccc2)CC(O)C(Cc2ccccc2)NC(=O)OC(C)(C)C)[nH]1 [B Boc Me(R)] | – | – | 13.3 µM |
| Nc1nc2c(ncn2[C@@H]2O[C@H](COP(=O)(O)OP(=O)(O)OP(=O)(O)O)[C@@H](O)[C@H]2O)c(=O)[nH]1 [GTP] | 490 µM | low (those whose binding constant changes by a factor of 15 or less upon increase of the concentration of phosphate to 50 mM) | – |
| Nc1nc2c(ncn2[C@@H]2O[C@H](COP(=O)(O)O)[C@@H](O)[C@H]2O)c(=O)[nH]1 [GMP] | 530 µM | low (those whose binding constant changes by a factor of 15 or less upon increase of the concentration of phosphate to 50 mM) | – |
| Nc1nc2c(ncn2COCCOP(=O)(O)O)c(=O)[nH]1 [acyclovirMP] | 6.6 µM | low (those whose binding constant changes by a factor of 15 or less upon increase of the concentration of phosphate to 50 mM) | – |
| C=CC(C)(C)C(=O)c1cnc(C(Cc2ccccc2)CC(O)C(Cc2ccccc2)NC(=O)OC(C)(C)C)[nH]1 (centres unmarked) [A Boc CMe2CHCH2] | – | – | 0.27 µM |
| Nc1nc2c(ncn2[C@@H]2O[C@H](COP(=O)(O)OP(=O)(O)O)[C@@H](O)[C@H]2O)c(=O)[nH]1 [GDP] | 360 µM | low (those whose binding constant changes by a factor of 15 or less upon increase of the concentration of phosphate to 50 mM) | – |
| CC(C)C(NC(=O)C(Cc1ccccc1)CC(O)C(Cc1ccccc1)NC(=O)OC(C)(C)C)c1ncc[nH]1 (centres unmarked) [D CH] | – | – | 0.018 µM |
